# pIC50: −log10 of the molar value.
# Legend:
# PI3Kα = PI3Kα (Homo sapiens (Human), UniProt P42336); experiment: Inhibition of PI3Kα (ADP-Glo kinase activity assay, ATP to ADP conversion); assay type: biochemical; settings: 25 μM PIP2:PS, 60 μM ATP, 30 min reaction, luminescence
# Protocol: Quantification of ATP to ADP conversion as a measure of PI3Kα activity. Active PI3Kα (Life Technologies), in the presence or absence of PI3Kα inhibitor, was reacted with PIP2:PS (Life Technologies), a substrate specifically optimized for use with Class I PI3 kinases, and ultrapure ATP (Promega). The conversion of ATP to ADP by PI3Kα was measured as luminescence signal via Promega ADP-Glo kinase activity assay. Assay was validated using published PI3Kα inhibitors LY294002, PI-103, BYL719, GDC0198 and also DMSO vehicle control.
# Compounds were prepared at 100× final concentration as a 12-point, 1:3 serial-dilution in DMSO series, with DMSO control as 12th point. Compound was then diluted in (25 mM HEPES pH 7.5, 1 mM EGTA, 0.3% CHAPS) prior to addition to PI3Kα. Active PI3Kα diluted to 0.24 ng/μL (1.1 nM) in (50 mM HEPES pH 7.5, 6 mM MgCl2, 1 mM EGTA, 200 mM NaCl, 0.03% CHAPS, 8 mM DTT) was incubated with compound for 0 hr and 3 hr prior to the start of the reaction. 25 μM PIP2:PS and 60 μM ATP were diluted from stock in (25 mM HEPES pH 7.5, 1 mM EGTA, 0.3% CHAPS) and added to initiate the PI3Kα reaction. Reaction time was 30 minutes. ATP to ADP conversion was measured in Luminescence Counts on DTX880 Plate Reader (Beckman Coulter). Compound IC50s were reported using GraphPad Prism software. Analytical method was non-linear regression, 4-parameter curve fit with bottom fit to validated PI3Kα inhibitor reference controls and no top fit (floating top).
# [1] = system: (Ser-473) pAKT in B103 (Rat Neuroblastoma) cells; experiment: pAKT protocol: loss of (Ser-473) pAKT by AlphaScreen in insulin-stimulated B103 cells; assay type: cell-based; settings: (Ser-473) pAKT/total AKT IC50, 2-hour pretreatment, 2.5 μg/mL insulin 20 minutes
# Protocol: Inhibition of the PI3K-AKT-mTOR pathway was measured by quantifying the loss of (Ser-473) pAKT using AlphaScreen (Perkin Elmer). B103 (Rat Neuroblastoma) cells were seeded in serum containing medium (High Glucose DMEM (-Phenol Red)+10% FBS+2× Glutamax+1 mM Sodium Pyruvate+10 mM HEPES+1× Non-Essential Amino Acids+1× Pen/Strep) on a 96-well tissue culture treated plate and grown for 20 hours. Cells were then serum starved in serum free medium (High Glucose DMEM (-Phenol Red)+1× Glutamax+1 mM Sodium Pyruvate+1× Pen/Strep) for 6 hours prior to a 2-hour pretreatment with inhibitors of the pathway, including reference inhibitor LY294002. These inhibitors were prepared at a 200× final concentration as a 6-point, 1:3 serial dilution in DMSO series, with DMSO as the 7th point. The inhibitors were then diluted in experimental medium (High Glucose DMEM (-Phenol Red)+1× Glutamax+1 mM Sodium Pyruvate+1× Pen/Strep+25 mM HEPES+0.1% BSA) and combined with the cells at 1× final concentration in 0.5% DMSO. […] Cells were promptly lysed using Perkin Elmer proprietary lysis buffer and the (Ser-473) pAKT and total AKT contained in the lysate was measured by AlphaScreen. In AlphaScreen, donor beads were coated with streptavidin to capture one of the antibodies, which is biotinylated. Acceptor beads were coated with Protein A to immobilize the other antibody. In the presence of target protein, the two antibodies bring the donor and acceptor beads close together, generating signal. The amount of light emission is directly proportional to the amount of target protein present in the sample. For each inhibitor tested: the ratio of measured (Ser-473) pAKT/totalAKT was plotted in GraphPad Prism as a 7-point, non-linear regression, 4-parameter curve with bottom constrained to reference control bottom and unconstrained top anchored to DMSO.
# PI3Kα, sequence (P42336 whole entry): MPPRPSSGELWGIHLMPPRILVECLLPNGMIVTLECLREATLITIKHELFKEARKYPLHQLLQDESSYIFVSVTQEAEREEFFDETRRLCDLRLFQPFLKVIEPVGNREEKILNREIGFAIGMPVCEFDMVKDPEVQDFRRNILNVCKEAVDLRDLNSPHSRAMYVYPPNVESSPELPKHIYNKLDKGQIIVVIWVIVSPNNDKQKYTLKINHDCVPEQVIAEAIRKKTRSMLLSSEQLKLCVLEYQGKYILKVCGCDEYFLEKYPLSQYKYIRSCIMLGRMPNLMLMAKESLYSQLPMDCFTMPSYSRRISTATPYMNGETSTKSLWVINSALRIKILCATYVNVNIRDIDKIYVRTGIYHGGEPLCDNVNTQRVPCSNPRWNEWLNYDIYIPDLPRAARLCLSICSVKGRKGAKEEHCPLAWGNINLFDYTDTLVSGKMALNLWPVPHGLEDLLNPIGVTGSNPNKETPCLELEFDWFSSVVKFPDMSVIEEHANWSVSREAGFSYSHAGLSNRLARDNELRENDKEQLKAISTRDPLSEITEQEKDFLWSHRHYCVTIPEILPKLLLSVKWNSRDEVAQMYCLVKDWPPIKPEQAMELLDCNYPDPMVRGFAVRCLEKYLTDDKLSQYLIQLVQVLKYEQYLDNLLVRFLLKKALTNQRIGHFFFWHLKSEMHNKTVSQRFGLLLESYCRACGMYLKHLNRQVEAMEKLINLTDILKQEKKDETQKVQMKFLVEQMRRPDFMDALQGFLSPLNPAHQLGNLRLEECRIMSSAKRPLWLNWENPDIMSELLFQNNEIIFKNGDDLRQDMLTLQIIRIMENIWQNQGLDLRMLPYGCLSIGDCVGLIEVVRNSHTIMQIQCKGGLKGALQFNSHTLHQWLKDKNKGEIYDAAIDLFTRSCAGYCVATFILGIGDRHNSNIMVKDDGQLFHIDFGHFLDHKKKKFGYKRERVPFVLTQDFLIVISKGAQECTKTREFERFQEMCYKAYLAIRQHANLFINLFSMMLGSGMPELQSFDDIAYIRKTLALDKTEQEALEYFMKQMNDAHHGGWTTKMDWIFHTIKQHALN
# PI3Kα, sequence (P27986 whole entry partner): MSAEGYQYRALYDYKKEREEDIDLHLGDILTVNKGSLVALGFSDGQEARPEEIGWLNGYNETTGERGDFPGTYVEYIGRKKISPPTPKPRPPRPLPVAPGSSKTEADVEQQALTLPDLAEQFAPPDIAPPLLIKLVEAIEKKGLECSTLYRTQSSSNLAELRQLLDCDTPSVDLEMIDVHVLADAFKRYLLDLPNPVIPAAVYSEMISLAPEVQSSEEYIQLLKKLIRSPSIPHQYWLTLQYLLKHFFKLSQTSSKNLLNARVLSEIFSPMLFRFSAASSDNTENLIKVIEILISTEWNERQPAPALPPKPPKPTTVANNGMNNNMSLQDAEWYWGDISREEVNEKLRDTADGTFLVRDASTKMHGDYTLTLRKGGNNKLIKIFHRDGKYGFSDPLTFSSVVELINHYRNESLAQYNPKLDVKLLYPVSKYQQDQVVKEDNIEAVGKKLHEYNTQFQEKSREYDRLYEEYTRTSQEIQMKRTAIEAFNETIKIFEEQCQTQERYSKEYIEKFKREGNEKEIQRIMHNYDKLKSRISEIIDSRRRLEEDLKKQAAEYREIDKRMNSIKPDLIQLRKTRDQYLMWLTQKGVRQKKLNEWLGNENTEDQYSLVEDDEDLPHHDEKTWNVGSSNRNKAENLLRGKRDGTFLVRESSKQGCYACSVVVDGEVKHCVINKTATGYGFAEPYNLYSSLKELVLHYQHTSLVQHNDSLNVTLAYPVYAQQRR
Compound,PI3Ka IC50 (PI3Kα) [µM],pIC50 [1]
"Nc1ncc(-c2cc(N3CCOCC3)cc(S(=O)(=O)C3CCOC3)c2)c(C(F)(F)F)n1 (centres unmarked) [Compound 72, 5-(3-morpholino-5-((tetrahydrofuran-3-yl)sulfonyl)phenyl)-4-(trifluoromethyl)pyrimidin-2-amine]",0.46,5.04
"Nc1ncc(-c2cc(N3CCOCC3)cc(S(=O)(=O)CC3CCCCC3)c2)cn1 [Compound 60, 5-(3-((cyclohexylmethyl)sulfonyl)-5-morpholinophenyl)pyrimidin-2-amine]",0.81,4.51
"Nc1ncc(-c2cc(Cc3ccccc3)cc(N3CCOCC3)n2)cn1 [Compound 124, 5-(4-benzyl-6-morpholinopyridin-2-yl)pyrimidin-2-amine]",0.12,6.05
"Nc1ncc(-c2cc(N3CCOCC3)cc(S(=O)(=O)C3CN(C(=O)c4ccc(F)cc4)C3)c2)cn1 [Compound 79, (3-((3-(2-aminopyrimidin-5-yl)-5-morpholinophenyl)sulfonyl)azetidin-1-yl)(4-fluorophenyl)methanone]",0.21,5.30
"Nc1ncc(-c2cc(N3CCOCC3)cc(S(=O)(=O)C3CN(C(=O)Cc4ccc(F)cc4)C3)c2)cn1 [Compound 78, 1-(3-((3-(2-aminopyrimidin-5-yl)-5-morpholinophenyl)sulfonyl)azetidin-1-yl)-2-(4-fluorophenyl)ethan-1-one]",0.18,5.34
"Nc1ncc(-c2cc(N3CCOCC3)cc(S(=O)(=O)Cc3ccc4[nH]cnc4c3)c2)cn1 [Compound 63, 5-(3-(((1H-benzo[d]imidazol-5-yl)methyl)sulfonyl)-5-morpholinophenyl)pyrimidin-2-amine]",0.47,5.43
"CCC(=O)N1CC(S(=O)(=O)c2cc(-c3cnc(N)nc3)cc(N3CCOCC3)c2)C1 [Compound 75, 1-(3-((3-(2-aminopyrimidin-5-yl)-5-morpholinophenyl)sulfonyl)azetidin-1-yl)propan-1-one]",0.25,5.19
"Nc1ncc(-c2cc(N3CCOCC3)cc(S(=O)(=O)c3ccc4c(c3)OCC4)c2)cn1 [Compound 116, 5-(3-((2,3-dihydrobenzofuran-6-yl)sulfonyl)-5-morpholinophenyl)pyrimidin-2-amine]",2.3,4.64
"Nc1ncc(-c2cc(N3CCCc4ccccc43)cc(N3CCOCC3)n2)cn1 [Compound 140, 5-(4-(3,4-Dihydroquinolin-1(2H)-yl)-6-morpholinopyridin-2-yl)pyrimidin-2-amine]",0.12,6.51
"Nc1ccc(-c2cc(N3CCOCC3)cc(S(=O)(=O)[C@@H]3CCOC3)c2)cn1 [Compound 101, (R)-5-(3-morpholino-5-((tetrahydrofuran-3-yl)sulfonyl)phenyl)pyridin-2-amine]",0.88,5.07
"Nc1ncc(-c2cc(N3CCOCC3)cc(S(=O)(=O)CCc3ccc(F)cc3)c2)cn1 [Compound 82, 5-(3-((4-fluorophenethyl)sulfonyl)-5-morpholinophenyl)pyrimidin-2-amine]",0.29,4.97
"Nc1ncc(-c2cc(N3CCOCC3)cc(S(=O)(=O)c3coc4ccccc34)c2)cn1 [Compound 109, 5-(3-(benzofuran-3-ylsulfonyl)-5-morpholinophenyl)pyrimidin-2-amine]",1.2,4.82
"Nc1ccc(-c2cc(N3CCOCC3)cc(S(=O)(=O)Cc3ccc(F)cc3F)c2)nn1 [Compound 96, 6-(3-((2,4-difluorobenzyl)sulfonyl)-5-morpholinophenyl)pyridazin-3-amine]",1.4,5.97
"CC(=O)N1CCC(S(=O)(=O)c2cc(-c3cnc(N)nc3)cc(N3CCOCC3)c2)CC1 [Compound 83, 1-(4-((3-(2-aminopyrimidin-5-yl)-5-morpholinophenyl)sulfonyl)piperidin-1-yl)ethan-1-one]",0.34,5.07
"Nc1ncc(-c2cc(S(=O)(=O)c3ccccc3Cl)cc(N3CCOCC3)n2)cn1 [Compound 139, 5-(4-((2-chlorophenyl)sulfonyl)-6-morpholinopyridin-2-yl)pyrimidin-2-amine]",0.017,7.80
"Nc1ncc(-c2cc(N3CCOCC3)cc(S(=O)(=O)/C=C/c3ccccc3O)c2)cn1 [Compound 113, (E)-2-(2-((3-(2-aminopyrimidin-5-yl)-5-morpholinophenyl)sulfonyl)vinyl)phenol]",1.1,4.84
"Nc1ncc(-c2cc(N3CCOCC3)cc(S(=O)(=O)Cc3ccc(N4CCOCC4)cc3)c2)cn1 [Compound 58, 5-(3-morpholino-5-((4-morpholinobenzyl)sulfonyl)phenyl) pyrimidin-2-amine]",,4.38
"CC(C)(C)NC(=O)N1CC(S(=O)(=O)c2cc(-c3cnc(N)nc3)cc(N3CCOCC3)c2)C1 [Compound 92, 3-((3-(2-aminopyrimidin-5-yl)-5-morpholinophenyl)sulfonyl)-N-(tert-butyl)azetidine-1-carboxamide]",0.15,5.54
"O=S(=O)(c1cc(-c2cnc(NC3CC3)nc2)cc(N2CCOCC2)c1)C1CCOC1 (centres unmarked) [Compound 103, N-cyclopropyl-5-(3-morpholino-5-((tetrahydrofuran-3-yl)sulfonyl)phenyl)pyrimidin-2-amine]",0.68,5.24
"Nc1ncc(-c2cc(N3CCOCC3)cc(S(=O)(=O)Cc3ccncc3)c2)cn1 [Compound 97, 5-(3-morpholino-5-((pyridin-4-ylmethyl)sulfonyl)phenyl)pyrimidin-2-amine]",0.51,4.91
"COc1ncc(-c2cc(N3CCOCC3)cc(S(=O)(=O)c3ccccc3)c2)cn1 [Compound 2, 4-(3-(2-methoxypyrimidin-5-yl)-5-(phenylsulfonyl)phenyl)morpholine]",5.0,
"COc1ccc(-c2cc(N3CCOCC3)cc(S(=O)(=O)Cc3ccc(F)cc3)c2)cc1N [Compound 43, 3′-((4-fluorobenzyl)sulfonyl)-4-methoxy-5′-morpholino-[1,1′-biphenyl]-3-amine]",11,
"COc1ccc(-c2cc(N3CCOCC3)cc(S(=O)(=O)c3ccccc3)c2)cn1 [Compound 5, 4-(3-(6-methoxypyridin-3-yl)-5-(phenylsulfonyl)phenyl)morpholine]",12,
"Nc1cnc(-c2cc(N3CCOCC3)cc(S(=O)(=O)Cc3ccccc3)c2)cn1 [Compound 73, 5-(3-(benzylsulfonyl)-5-morpholinophenyl)pyrazin-2-amine]",1.5,
"COc1cncc(-c2cc(N3CCOCC3)cc(S(=O)(=O)Cc3ccc(F)cc3)c2)c1 [Compound 55, 4-(3-((4-fluorobenzyl)sulfonyl)-5-(5-methoxypyridin-3-yl)phenyl)morpholine]",12,
"Nc1ncc(-c2cc(N3CCCCC3)cc(S(=O)(=O)c3ccccc3)c2)cn1 [Compound 25, 5-(3-(phenylsulfonyl)-5-(piperidin-1-yl)phenyl)pyrimidin-2-amine]",30,
"Nc1ncc(-c2cc(N3CCOCC3)cc(S(=O)(=O)c3ccc(C(F)(F)F)cc3)c2)cn1 [Compound 14, 5-(3-morpholino-5-((4-(trifluoromethyl)phenyl)sulfonyl)phenyl) pyrimidin-2-amine]",7.3,
"Nc1ncc(-c2cc(N3CCOCC3)cc(S(=O)(=O)c3cccc(C(F)(F)F)c3)c2)cn1 [Compound 7, 5-(3-morpholino-5-((3-(trifluoromethyl)phenyl)sulfonyl)phenyl) pyrimidin-2-amine]",1.8,
